Laboratory results reported in patent US20250304560A1, “MODULATORS OF NLRP3 INFLAMMASOME AND RELATED PRODUCTS AND METHODS” (Neumora Therapeutics, Inc., priority 2022, published 2025).
Where two headings read alike, the source gives them in different places.

Experiments:
IL-6 = IL-6 AlphaLISA in LPS-primed THP1 macrophages
NLRP3 inflammasome = NLRP3 inflammasome (Homo sapiens, UniProt Q96P20); experiment: NLRP3 inflammasome activation in THP1 macrophages, IL-1β AlphaLISA
[1] = Homo sapiens, THP-1, read-out: IL-6 Activity (μM), THP1 macrophages, PMA, LPS priming, nigericin 6.7 uM
[2] = IL-1β Activity (nM), THP1 macrophages, PMA, LPS priming, nigericin 6.7 uM activation
[3] = Homo sapiens, THP-1, read-out: IL-6 Activity (μM)
[4] = read-out: IL-6 Activity, THP1 macrophages, PMA, LPS priming, nigericin 6.7 uM

Chain of NLRP3 inflammasome (Q96P20 whole entry): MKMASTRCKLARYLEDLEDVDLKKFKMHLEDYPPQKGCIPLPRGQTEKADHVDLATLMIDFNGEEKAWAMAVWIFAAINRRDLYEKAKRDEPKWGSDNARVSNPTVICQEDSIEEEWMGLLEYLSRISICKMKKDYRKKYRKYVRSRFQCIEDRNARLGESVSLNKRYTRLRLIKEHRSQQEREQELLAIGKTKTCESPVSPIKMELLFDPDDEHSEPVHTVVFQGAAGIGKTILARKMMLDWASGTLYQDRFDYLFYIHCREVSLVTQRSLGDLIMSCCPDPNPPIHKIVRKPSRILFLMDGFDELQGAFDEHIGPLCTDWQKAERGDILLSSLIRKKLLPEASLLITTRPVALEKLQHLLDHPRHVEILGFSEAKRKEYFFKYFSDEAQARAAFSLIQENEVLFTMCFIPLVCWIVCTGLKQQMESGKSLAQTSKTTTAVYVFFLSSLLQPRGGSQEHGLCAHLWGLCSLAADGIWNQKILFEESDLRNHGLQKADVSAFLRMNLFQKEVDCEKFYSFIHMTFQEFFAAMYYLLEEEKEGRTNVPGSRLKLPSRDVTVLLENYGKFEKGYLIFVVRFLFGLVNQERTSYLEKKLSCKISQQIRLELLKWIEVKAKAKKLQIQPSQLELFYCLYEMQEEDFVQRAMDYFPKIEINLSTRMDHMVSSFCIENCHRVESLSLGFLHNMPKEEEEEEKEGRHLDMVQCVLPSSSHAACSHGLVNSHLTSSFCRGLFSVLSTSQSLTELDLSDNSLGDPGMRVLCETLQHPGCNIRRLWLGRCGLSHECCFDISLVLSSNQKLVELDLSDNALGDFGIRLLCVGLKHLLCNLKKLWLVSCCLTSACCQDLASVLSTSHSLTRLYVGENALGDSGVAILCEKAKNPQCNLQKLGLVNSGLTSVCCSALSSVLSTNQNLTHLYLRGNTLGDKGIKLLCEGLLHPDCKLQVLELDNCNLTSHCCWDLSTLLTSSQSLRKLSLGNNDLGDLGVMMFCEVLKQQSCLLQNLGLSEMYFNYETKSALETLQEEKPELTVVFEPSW

| IC50 (IL-6; [1]) | IC50 (NLRP3 inflammasome; [2]) | IC50 (IL-6; [3]) | IC50 (NLRP3 inflammasome) | IC50 (IL-6; [4]) | Structure (SMILES) |
| --- | --- | --- | --- | --- | --- |
| > 10 µM | > 1000 nM |  |  |  | CN1CC[C@@H](Nc2ccc(-c3ccccc3O)nn2)C1 [compound 31] |
| > 10 µM | 10 to 100 nM |  |  |  | Cc1cc(N[C@@H]2CCCN(CCF)C2)nnc1-c1ccccc1O [compound 39] |
| > 10 µM | 10 to 100 nM |  |  |  | Cc1cc(N[C@@H]2C[C@H](F)CN(C)C2)nnc1-c1ccccc1O [compound 42] |
| > 10 µM | 10 to 100 nM |  |  |  | Cc1cc(N[C@H]2CN(C)CC[C@@H]2F)nnc1-c1ccccc1O [compound 43] |
| > 10 µM | 100 to 500 nM |  |  |  | Cc1cc(N[C@H]2CN(C)CC(F)(F)C2)nnc1-c1ccc(F)cc1O [compound 45] |
| > 10 µM | 10 to 100 nM |  |  |  | Cc1cc(N[C@H]2CN(C)CC[C@@H]2F)nnc1-c1ccc(F)cc1O [compound 48] |
| > 10 µM | 10 to 100 nM |  |  |  | Cc1cc(N[C@H]2CN(C)CC[C@H]2F)nnc1-c1ccccc1O [compound 50] |
| > 10 µM | 1 to 10 nM |  |  |  | CN1CCC[C@@H](Nc2cc(F)c(-c3ccccc3O)nn2)C1 [compound 52] |
| 5 to 10 µM | < 1 nM |  |  |  | Cc1cc(N[C@@H]2CCCN(C(C)C)C2)nnc1-c1ccccc1O [compound 57] |
| 5 to 10 µM | < 1 nM |  |  |  | Cc1cc(N[C@@H]2CCCN(C(C)C)C2)nnc1-c1ccc(F)cc1O [compound 59] |
| > 10 µM | 1 to 10 nM |  |  |  | Cc1cc(-c2nnc(N[C@@H]3CCCN(C)C3)cc2C)c(O)cc1F [compound 65] |
| 5 to 10 µM | 100 to 500 nM |  |  |  | Cc1cc(-c2nnc(N(C)[C@@H]3CCCN(C)C3)cc2C)c(O)cc1F [compound 66] |
| > 10 µM | 10 to 100 nM |  |  |  | Cc1ccc(O)c(-c2nnc(N[C@@H]3CCCN(C)C3)cc2C)c1 [compound 68] |
|  |  | > 10 µM | > 1000 nM |  | Cc1cc(O[C@@H]2CCCN(C)C2)nnc1-c1ccc(C(F)(F)F)cc1O [compound 73, (R)-2-(4-methyl-6-((1-methylpiperidin-3-yl)oxy)pyridazin-3-yl)-5-(trifluoromethyl) phenol] |
| 5 to 10 µM | 1 to 10 nM |  |  |  | Cc1cc(-c2nnc(N[C@@H]3CCCN(C)C3)cc2C)c(O)cc1C(F)(F)F [compound 76] |
| > 10 µM | 10 to 100 nM |  |  |  | Cc1cc(-c2ccc(F)cc2O)nnc1N[C@@H]1CCCN(C)C1 [compound 77] |
| < 1 µM | 10 to 100 nM |  |  |  | Cc1ccc(-c2cc(C)c(N[C@@H]3CCCN(C)C3)nn2)c(O)c1 [compound 82] |
| > 10 µM | 1 to 10 nM |  |  |  | Cc1cc(-c2c(C)cc(F)cc2O)nnc1N[C@@H]1CCCN(C)C1 [compound 84] |
| > 10 µM | > 1000 nM |  |  |  | Cc1cc(-c2ccccc2O)nnc1N[C@@H]1CCCN(CCF)C1 [compound 85] |
| > 10 µM | 10 to 100 nM |  |  |  | Cc1cc(-c2ccc(C#N)cc2O)nnc1N[C@@H]1CCCN(C)C1 [compound 91] |
|  |  | > 10 µM | 10 to 100 nM |  | Cc1cc(N(C)[C@@H]2CCN(C)C2)nnc1-c1ccc(C(F)(F)F)cc1O [compound 97] |
|  |  | > 10 µM | > 1000 nM |  | Cc1cc(-c2ccccc2O)nnc1O[C@@H]1CCCN(C)C1 [compound 99] |

Further lines, the compound ahead of its results:

| Structure (SMILES) | IC50 (IL-6; [1]) | IC50 (NLRP3 inflammasome; [2]) | IC50 (IL-6; [3]) | IC50 (NLRP3 inflammasome) | IC50 (IL-6; [4]) |
| --- | --- | --- | --- | --- | --- |
| CN1CC[C@@H](N(C)c2ccc(-c3ccc(F)cc3O)nn2)C1 [compound 32] |  |  | > 10 µM | > 1000 nM |  |
| CN1CC[C@@H](N(C)c2ccc(-c3ccccc3O)nn2)C1 [compound 33] |  |  | > 10 µM | > 1000 nM |  |
| Cc1cc(-c2ccc(F)cc2O)nnc1O[C@@H]1CCCN(C)C1 [compound 35] |  |  | 5 to 10 µM | 10 to 100 nM |  |
| Cc1cc(C[C@@H]2CCCN(C)C2)nnc1-c1ccc(F)cc1O [compound 36, (S)-5-fluoro-2-(4-methyl-6-((1-methylpiperidin-3-yl)methyl)pyridazin-3-yl) phenol] |  |  | > 10 µM | 10 to 100 nM |  |
| Cc1cc(C[C@@H]2CCCN(C)C2)nnc1-c1ccc(C(F)(F)F)cc1O [compound 37] |  |  | > 10 µM | 500 to 1000 nM |  |
| Cc1cc(N[C@@H]2CCCN(C)C2)nnc1-c1ccc(F)c(C)c1O [compound 38] |  | 1 to 10 nM |  |  | 1 to 5 µM |
| Cc1cc(N[C@H]2CN(C)CC(F)(F)C2)nnc1-c1ccccc1O [compound 40] | > 10 µM | 500 to 1000 nM |  |  |  |
| Cc1cc(N[C@@H]2CCCN(CCF)C2)nnc1-c1ccc(F)cc1O [compound 44] | > 10 µM | 1 to 10 nM |  |  |  |
| Cc1cc(N[C@@H]2C[C@H](F)CN(C)C2)nnc1-c1ccc(F)cc1O [compound 47] | > 10 µM | 10 to 100 nM |  |  |  |
| Cc1cc(N[C@H]2CN(C)CC[C@H]2F)nnc1-c1ccc(F)cc1O [compound 49] | > 10 µM | 10 to 100 nM |  |  |  |
| CCN1CCC[C@@H](Nc2cc(C)c(-c3ccccc3O)nn2)C1 [compound 56] | > 10 µM | < 1 nM |  |  |  |
| CCN1CCC[C@@H](Nc2cc(C)c(-c3ccc(F)cc3O)nn2)C1 [compound 58] | 5 to 10 µM | < 1 nM |  |  |  |
| CCN1CCC[C@@H](Nc2ccc(-c3c(C)cc(F)cc3O)nn2)C1 [compound 60] | > 10 µM | < 1 nM |  |  |  |
| Cc1cc(N[C@@H]2CCCN(C)C2)nnc1-c1c(C)cc(F)cc1O [compound 62] | > 10 µM | 1 to 10 nM |  |  |  |
| Cc1cc(N[C@@H]2CCCN(C)C2)nnc1-c1ccc(F)c(C)c1O [compound 63] |  | < 1 nM |  |  | > 10 µM |
| Cc1cc(N(C)[C@@H]2CCCN(C)C2)nnc1-c1ccc(F)c(C)c1O [compound 64] | > 10 µM | 1 to 10 nM |  |  |  |
| Cc1cc(N[C@@H]2CCCN(C)C2)nnc1-c1c(C)cccc1O [compound 69] | 5 to 10 µM | 1 to 10 nM |  |  |  |
| Cc1cc(C[C@@H]2CCCN(C)C2)nnc1-c1ccccc1O [compound 70] |  |  | > 10 µM | 10 to 100 nM |  |
| Cc1cc(O[C@@H]2CCCN(C)C2)nnc1-c1ccccc1O [compound 71] |  |  | > 10 µM | 10 to 100 nM |  |

| Structure (SMILES) | IC50 (IL-6; [1]) | IC50 (NLRP3 inflammasome; [2]) | IC50 (IL-6; [3]) | IC50 (NLRP3 inflammasome) | IC50 (IL-6; [4]) |
| --- | --- | --- | --- | --- | --- |
| Cc1cc(F)cc(O)c1-c1ccc(O[C@@H]2CCCN(C)C2)nn1 [compound 72] |  |  | > 10 µM | 10 to 100 nM |  |
| Cc1cc(-c2c(C)cccc2O)nnc1N[C@@H]1CCCN(C)C1 [compound 78] | > 10 µM | 1 to 10 nM |  |  |  |
| Cc1cc(-c2cc(C)c(N[C@@H]3CCCN(C)C3)nn2)c(O)cc1F [compound 79] | < 1 µM | 100 to 500 nM |  |  |  |
| Cc1cc(-c2ccc(F)c(C)c2O)nnc1N[C@@H]1CCCN(C)C1 [compound 80] | 5 to 10 µM | 1 to 10 nM |  |  |  |
| Cc1cc(-c2cccc(C)c2O)nnc1N[C@@H]1CCCN(C)C1 [compound 81] | > 10 µM | 1 to 10 nM |  |  |  |
| Cc1cc(-c2ccc(F)cc2O)nnc1N[C@@H]1CCCN(CCF)C1 [compound 86] | > 10 µM | 500 to 1000 nM |  |  |  |
| Cc1cc(N(C)[C@@H]2CCCN(C)C2)nnc1-c1ccc(C#N)cc1O [compound 90] | > 10 µM | < 1 nM |  |  |  |
| Cc1cc(N[C@@H]2CCCN(C)C2)nnc1-c1ccc(C(=O)O)cc1O [compound 92] | > 10 µM | 10 to 100 nM |  |  |  |
| Cc1cc(-c2ccc(C(=O)O)cc2O)nnc1N[C@@H]1CCCN(C)C1 [compound 93] | > 10 µM | > 1000 nM |  |  |  |
| Cc1cc(N[C@@H]2CC[C@@H](C(=O)O)NC2)nnc1-c1ccccc1O [compound 94] | > 10 µM | > 1000 nM |  |  |  |
| Cc1cc(N[C@@H]2CC[C@@H](C(=O)O)N(C)C2)nnc1-c1ccccc1O [compound 95] | > 10 µM | > 1000 nM |  |  |  |
| Cc1cc(N[C@@H]2CCN(C)C2)nnc1-c1ccc(C(F)(F)F)cc1O [compound 96] | > 10 µM | 1 to 10 nM |  |  |  |
| Cc1cc(-c2ccc(C(F)(F)F)cc2O)nnc1O[C@@H]1CCCN(C)C1 [compound 98] |  |  | > 10 µM | 100 to 500 nM |  |
| Cc1cc(O[C@@H]2CCCN(C)C2)nnc1-c1ccc(C#N)cc1O [compound 100] |  |  | > 10 µM | 100 to 500 nM |  |
| Cc1cc(-c2ccc(C#N)cc2O)nnc1O[C@@H]1CCCN(C)C1 [compound 101] |  |  | > 10 µM | > 1000 nM |  |
| Cc1cc(CC2CCCN(C)C2)nnc1-c1ccc(C#N)cc1O (stereo not shown) [compound 102] |  |  | > 10 µM | 100 to 500 nM |  |
| Cc1cc(C[C@H]2CCCN(C)C2)nnc1-c1ccc(C(F)(F)F)cc1O [compound 104] |  |  | > 10 µM | 1 to 10 nM |  |
| Cc1cc(C[C@H]2CCCN(C)C2)nnc1-c1ccccc1O [compound 105] |  |  | > 10 µM | > 1000 nM |  |
